Laboratory results taken from patent US6737383B1, “Herbicidal oxadiazolidines” (priority 1999, dated 2004).

Columns and labels:
[1] = system: bedstraw; test: Test B pre/postemergence bedstraw; assay type: in vivo, Galium aparine
Outline: (§1)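 Herbicidal effect was estimated by eye on a ten-point control scale after plants spent twelve to sixteen days in a greenhouse following soil or foliar treatment. Foliar sprays targeted plants at one to four leaves; all doses were formulated in a non-phytotoxic solvent with surfactant.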

[2] = system: blackgrass; test: Test B pre/postemergence blackgrass; assay type: in vivo, Alopecurus myosuroides
Outline: as §1

[3] = system: surinam grass; test: Test B pre/postemergence surinam grass; assay type: in vivo, Brachiaria decumbens
Outline: as §1

[4] = system: cocklebur; test: Test B pre/postemergence cocklebur; assay type: in vivo, Xanthium strumarium
Outline: as §1

[5] = system: corn; test: Test B pre/postemergence corn; assay type: in vivo, Zea mays
Outline: as §1

[6] = system: crabgrass; test: Test B pre/postemergence crabgrass; assay type: in vivo, Digitaria sanguinalis
Outline: as §1

[7] = system: pigweed; test: Test B pre/postemergence pigweed; assay type: in vivo, Amaranthus retroflexus
Outline: as §1

[8] = system: rape; test: Test B pre/postemergence rape; assay type: in vivo, Brassica napus
Outline: as §1

[9] = system: soybean; test: Test B pre/postemergence soybean; assay type: in vivo, Glycine max
Outline: as §1

[10] = system: sugar beet; test: Test B pre/postemergence sugar beet; assay type: in vivo, Beta vulgaris
Outline: as §1

[11] = system: velvetleaf; test: Test B pre/postemergence velvetleaf; assay type: in vivo, Abutilon theophrasti
Outline: as §1

[12] = system: wheat; test: Test B pre/postemergence wheat; assay type: in vivo, Triticum aestivum
Outline: as §1

[13] = system: wild oat; test: Test B pre/postemergence wild oat; assay type: in vivo, Avena fatua
Outline: as §1

[14] = system: purple nutsedge; test: Test B pre/postemergence purple nutsedge; assay type: in vivo, Cyperus rotundus
Outline: as §1

[15] = system: smallflower flatsedge; test: Test B flood test smallflower flatsedge; assay type: in vivo, Cyperus difformis
Outline: (§2)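 Flood test on plants grown to the 2-leaf stage; treated plants kept in greenhouse twelve to sixteen days, then visually rated against controls on a 0 (no effect) to 10 (complete control) scale.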

[16] = system: bamyardgrass; test: Test B flood test barnyardgrass; assay type: in vivo, Echinochloa crus-galli
Outline: as §2

[17] = Preemergence, Rate 62 g/ha, scale of 0 to 10 where 0 is no effect and 10 is complete control
[18] = Preemergence, Rate 125 g/ha, 0 is no effect, 10 is complete control
[19] = Preemergence, Rate 250 g/ha, scale 0 to 10, 0 is no effect, 10 is complete control
[20] = Preemergence, Rate 500 g/ha, scale of 0 to 10 where 0 is no effect and 10 is complete control
[21] = Rate 62 g/ha, Postemergence, scale of 0 to 10 where 0 is no effect and 10 is complete control
[22] = Rate 125 g/ha, Postemergence, scale 0 to 10
[23] = Rate 500 g/ha, Postemergence, scale 0 to 10
[24] = Rate 62 g/ha, headed Pre-emergence (flood test species), scale 0 to 10 (0 no effect, 10 complete control)
[25] = Rate 125 g/ha, Pre-emergence, flood test species, scale 0 to 10 where 0 is no effect and 10 is complete control
[26] = Rate 250 g/ha, Pre-emergence, flood-test species, scale 0 to 10, 0 is no effect, 10 is complete control

C=CCn1c(=O)on(C(=O)N(c2ccc(F)cc2)C2CCC2)c1=O [Compound 194]
3: Blackgrass plant response rating [2, 19] | Blackgrass plant response rating [2, 23] | Plant response rating, B. signalgrass [3, 20] | B. signalgrass plant response rating ([3]; Rate 500 g/ha, Postemergence, scale 0 to 10, 0 no effect, 10 complete control) | Plant response rating, Sugarbeets [10, 20] | Plant response rating, Velvetleaf [11, 20] | Wild oats plant response rating [13, 19]
10: Plant response rating, Bedstraw [1, 20] | Plant response rating, Redroot pigweed [7, 20]
2: Blackgrass plant response rating (0 to 10 scale) [2, 18] | Plant response rating (0 to 10; 0 is no effect, 10 is complete control), Blackgrass ([2]; Rate 250 g/ha, Postemergence) | Plant response rating (0 to 10; 0 is no effect, 10 is complete control), Cocklebur ([4]; Rate 250 g/ha, Postemergence) | Cocklebur plant response rating [4, 23] | Crabgrass plant response rating [6, 23] | Rape plant response rating [8, 19] | Rape plant response rating [8, 23] | Sugarbeets plant response rating [10, 19] | Plant response rating, Wheat [12, 20]
5: Redroot pigweed plant response rating [7, 17]
9: Crabgrass plant response rating (0 to 10 scale) [6, 18] | Crabgrass plant response rating [6, 19]
8: Plant response rating, Blackgrass [2, 20] | Redroot pigweed plant response rating [7, 19] | Plant response rating, Wild oats [13, 20]
7: Redroot pigweed plant response rating (0 to 10 scale) [7, 18] | Plant response rating, Rape [8, 20]
0: Bedstraw plant response rating [1, 17] | Bedstraw plant response rating (0 to 10 scale) [1, 18] | Bedstraw plant response rating [1, 19] | Bedstraw plant response rating [1, 21] | Bedstraw plant response rating [1, 22] | Plant response rating (0 to 10; 0 is no effect, 10 is complete control), Bedstraw ([1]; Rate 250 g/ha, Postemergence) | Bedstraw plant response rating [1, 23] | Blackgrass plant response rating [2, 17] | Blackgrass plant response rating [2, 21] | Blackgrass plant response rating [2, 22] | B. signalgrass plant response rating [3, 17] | B. signalgrass plant response rating (0 to 10 scale) [3, 18] | B. signalgrass plant response rating [3, 19] | B. signalgrass plant response rating [3, 21] | B. signalgrass plant response rating ([3]; Rate 125 g/ha, Postemergence, scale 0 (no effect) to 10 (complete control)) | Plant response rating, B. signalgrass ([3]; Rate 250 g/ha, Postemergence, scale 0 to 10, 0 is no effect, 10 is complete control) | Cocklebur plant response rating [4, 17] | Cocklebur plant response rating (0 to 10 scale) [4, 18] | Cocklebur plant response rating [4, 19] | Plant response rating, Cocklebur [4, 20] | Cocklebur plant response rating [4, 21] | Corn plant response rating [5, 17] | Corn plant response rating (0 to 10 scale) [5, 18] | Corn plant response rating [5, 19] | Plant response rating, Corn [5, 20] | Corn plant response rating [5, 21] | Corn plant response rating [5, 22] | Plant response rating (0 to 10; 0 is no effect, 10 is complete control), Corn ([5]; Rate 250 g/ha, Postemergence) | Corn plant response rating [5, 23] | Crabgrass plant response rating [6, 21] | Crabgrass plant response rating [6, 22] | Plant response rating (0 to 10; 0 is no effect, 10 is complete control), Crabgrass ([6]; Rate 250 g/ha, Postemergence) | Redroot pigweed plant response rating [7, 21] | Redroot pigweed plant response rating [7, 22] | Plant response rating (0 to 10; 0 is no effect, 10 is complete control), Redroot pigweed ([7]; Rate 250 g/ha, Postemergence) | Redroot pigweed plant response rating [7, 23] | Rape plant response rating [8, 17] | Rape plant response rating (0 to 10 scale) [8, 18] | Rape plant response rating [8, 21] | Rape plant response rating [8, 22] | Plant response rating (0 to 10; 0 is no effect, 10 is complete control), Rape ([8]; Rate 250 g/ha, Postemergence) | Soybean plant response rating [9, 17] | Soybean plant response rating (0 to 10 scale) [9, 18] | Soybean plant response rating [9, 19] | Plant response rating, Soybean [9, 20] | Soybean plant response rating [9, 21] | Soybean plant response rating [9, 22] | Plant response rating (0 to 10; 0 is no effect, 10 is complete control), Soybean ([9]; Rate 250 g/ha, Postemergence) | Sugarbeets plant response rating [10, 17] | Sugarbeets plant response rating (0 to 10 scale) [10, 18] | Sugarbeets plant response rating [10, 21] | Sugarbeets plant response rating [10, 22] | Plant response rating (0 to 10; 0 is no effect, 10 is complete control), Sugarbeets ([10]; Rate 250 g/ha, Postemergence) | Sugarbeets plant response rating [10, 23] | Velvetleaf plant response rating [11, 17] | Velvetleaf plant response rating [11, 19] | Velvetleaf plant response rating [11, 21] | Velvetleaf plant response rating [11, 22] | Plant response rating (0 to 10; 0 is no effect, 10 is complete control), Velvetleaf ([11]; Rate 250 g/ha, Postemergence) | Wheat plant response rating [12, 17] | Wheat plant response rating [12, 19] | Wheat plant response rating [12, 21] | Wheat plant response rating [12, 22] | Plant response rating (0 to 10; 0 is no effect, 10 is complete control), Wheat ([12]; Rate 250 g/ha, Postemergence) | Wild oats plant response rating [13, 17] | Wild oats plant response rating [13, 21] | Wild oats plant response rating [13, 22] | Plant response rating (0 to 10; 0 is no effect, 10 is complete control), Wild oats ([13]; Rate 250 g/ha, Postemergence) | Nutsedge plant response rating [14, 17] | Nutsedge plant response rating [14, 19] | Plant response rating, Nutsedge [14, 20] | Nutsedge plant response rating [14, 21] | Nutsedge plant response rating [14, 22] | Plant response rating (0 to 10; 0 is no effect, 10 is complete control), Nutsedge ([14]; Rate 250 g/ha, Postemergence) | Nutsedge plant response rating [14, 23] | S. Flatsedge plant response rating [15, 24] | S. Flatsedge plant response rating [15, 25] | S. Flatsedge plant response rating [15, 26] | S. Flatsedge plant response rating ([15]; Rate 500 g/ha, Pre-emergence, flood test species, scale 0 to 10 (0 no effect, 10 complete control)) | Barnyardgrass plant response rating [16, 24] | Barnyardgrass plant response rating [16, 25] | Barnyardgrass plant response rating [16, 26] | Plant response rating, Barnyardgrass ([16]; Rate 500 g/ha, headed Pre-emergence (flood test species), scale 0 to 10 (0 no effect, 10 complete control))
1: Cocklebur plant response rating [4, 22] | Soybean plant response rating [9, 23]
4: Crabgrass plant response rating [6, 17]
